Test systems include RXF 393 renal; MCF7 breast; NCI-H226 lung; HS 578T breast; M19-MEL melanoma; HCT-116 colon; XF 498 CNS; HOP-18 NSCLC; LXFL 529 NSCLC; DMS 273 small cell lung; 786-0 renal; P388/ADR leukemia; P388 leukemia; SN12K1 renal.
What all share (assay): NCI tumour cell line growth inhibition, 48 h

Values joined by “and” are separate entries in the source; they are usually repeats but may differ in a detail not shown here. Equal entries are not always repeated.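 In this assay, cells in 96-well plates receive the compound at five concentrations for 48 hours. Endpoints are linearly interpolated between the surrounding concentrations. Abbreviation: GI50, concentration required for 50% inhibition of growth. The concentration for full growth arrest is given as TGI.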

In the case of `O=c1cnn(C/C=C/CP(=O)(O)O)c(=O)[nH]1`, the TGI with RXF 393 renal, in the experiment with MCF7 breast, with NCI-H226 lung and in the experiment with HS 578T breast was more than 100 µM each time.

Consider `CC(C)OP(=O)(OC(C)C)c1nn(-c2ccc([N+](=O)[O-])cc2)c(=N)s1`, for which the TGI with M19-MEL melanoma, in the experiment on HCT-116 colon and in the experiment on XF 498 CNS was more than 100 µM throughout.

For the compound `CCOC(=O)c1csc(NC(=O)CN2CCCCC2)n1`, the TGI in the experiment on RXF 393 renal, with MCF7 breast and with HS 578T breast was more than 100 µM each time.

As for `COC1C(=[N+]=[N-])C(=O)NC(=O)N1C1OC(COC(c2ccccc2)(c2ccccc2)c2ccccc2)C(O)C1O` (configuration not stated), the TGI in the experiment with M19-MEL melanoma is 39.5 µM; in the experiment on HOP-18 NSCLC it was 37.5 µM; in the experiment with LXFL 529 NSCLC, 32.1 µM; in the experiment on HCT-116 colon, 34.9 µM; with NCI-H226 lung it was 32.1 µM.

As to `OC12c3ccccc3C1CCCCCCCCCC21OCCCO1` (configuration not stated), the TGI in the experiment with DMS 273 small cell lung, with M19-MEL melanoma, in the experiment on HOP-18 NSCLC, in the experiment on LXFL 529 NSCLC, in the experiment on HCT-116 colon and in the experiment on NCI-H226 lung was more than 100 µM in each case. This compound also returned a TGI with XF 498 CNS of more than 100 µM.

As for `COc1cccc(N2C(=O)CSC2c2c[nH]c3ccccc23)c1` (configuration not stated), the TGI in the experiment with RXF 393 renal, in the experiment on MCF7 breast and with HCT-116 colon was more than 100 µM each time.

As to `COC(=O)C1C(O)C(C)C(O)C(C)/C=C\C=C(C)C(=O)Nc2c(C)c(OC(C)=O)c3c(c2O)C(=O)C(C)=C2OCOC(=C23)C(C)=CC(C)(O)C(O)C(C)C1O` (configuration not stated), the GI50 in the experiment on RXF 393 renal was 20.9 µM and > 100 µM; with HCT-116 colon, 20.3 µM. In addition, the TGI in the experiment with RXF 393 renal is 51.9 µM and > 100 µM; in the experiment on MCF7 breast, 51.1 µM and > 100 µM; in the experiment on DMS 273 small cell lung, more than 75 µM; in the experiment with 786-0 renal it was more than 100 µM; with HCT-116 colon, 49.6 µM and > 100 µM; in the experiment with NCI-H226 lung, more than 100 µM. Also, the TGI was more than 100 µM in the experiment on HS 578T breast, more than 58.5 µM with P388/ADR leukemia, 47.1 µM in the experiment with P388 leukemia and more than 63.3 µM with SN12K1 renal.

These data come from PubChem BioAssay (NCI).
